Measurements as given in PubChem BioAssay (NCI).
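Tested at 5 concentrations; 48 h exposure; 96-well plates; endpoints linearly interpolated, else capped at highest concentration. The concentration for 50% growth inhibition is given as GI50. TGI is the concentration that stops growth completely.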

Assays:
Assay in all cases: NCI anticancer screen, dose series, 48 h
SN12C renal = test system: SN12C renal
NCI-H226 lung = test system: NCI-H226 lung
HCT-116 colon = test system: HCT-116 colon
PC-3 prostate = test system: PC-3 prostate
SK-OV-3 ovarian = test system: SK-OV-3 ovarian
SK-MEL-28 melanoma = test system: SK-MEL-28 melanoma
SF-268 CNS = test system: SF-268 CNS
RPMI-8226 leukemia = test system: RPMI-8226 leukemia
HOP-62 NSCLC = test system: HOP-62 NSCLC
IGROV1 ovarian = test system: IGROV1 ovarian

Compound	GI50 (SN12C renal)	TGI (SN12C renal)	GI50 (NCI-H226 lung)	TGI (NCI-H226 lung)	GI50 (HCT-116 colon)	TGI (HCT-116 colon)	GI50 (PC-3 prostate)	TGI (PC-3 prostate)	GI50 (SK-OV-3 ovarian)	TGI (SK-OV-3 ovarian)	GI50 (SK-MEL-28 melanoma)	TGI (SK-MEL-28 melanoma)	GI50 (SF-268 CNS)	TGI (SF-268 CNS)	GI50 (RPMI-8226 leukemia)	TGI (RPMI-8226 leukemia)	GI50 (HOP-62 NSCLC)	TGI (HOP-62 NSCLC)	TGI (IGROV1 ovarian)	GI50 (IGROV1 ovarian)
COc1cc2c3c(n(CCCBr)c(=O)c2cc1OC)-c1ccc(F)cc1C3=O	15.6 µM	> 100 µM	28 µM	> 100 µM	5.72 µM	30.6 µM	45.8 µM	> 100 µM	15.8 µM	59 µM	39.8 µM	> 100 µM	10.4 µM	> 100 µM	12.6 µM	38.1 µM	4.21 µM	25 µM	–	–
O=C(N/C(=C\c1ccc(/C=C(\NC(=O)c2ccccc2)c2nc3ccccc3s2)cc1)c1nc2ccccc2s1)c1ccccc1	–	12.6 µM	–	34.3 µM	–	30.9 µM	–	–	–	–	–	24.2 µM	–	21.1 µM	–	37.3 µM	–	32.3 µM	18.6 µM	–
Cn1c(=O)c(C(=O)NC(=O)NCCCCCOC(=O)CCCCCCCCCCC(=O)OCCCCCNC(=O)NC(=O)c2cn(Cc3ccccc3)c(=O)n(C)c2=O)cn(Cc2ccccc2)c1=O	–	> 100 µM	–	> 100 µM	–	> 100 µM	–	–	–	> 100 µM	–	> 100 µM	–	> 100 µM	–	> 100 µM	–	> 100 µM	> 100 µM	–
CCOC(=O)c1ccc(N2C(=O)Cc3ccccc3C2=O)cc1	–	> 100 µM	–	> 100 µM	–	> 100 µM	–	–	–	> 100 µM	–	> 100 µM	–	> 100 µM	–	> 100 µM	–	–	> 100 µM	–
N#Cc1nc2c(S(=O)(=O)c3ccccc3)c(N)n(Cc3ccc(Cl)cc3)c2nc1C#N	5.14 µM	17.6 µM	–	–	17.9 µM	> 50 µM	18.3 µM	> 50 µM	9.9 µM	29.3 µM	15.3 µM	> 50 µM	9.14 µM	37.6 µM	14.1 µM	> 50 µM	> 50 µM	> 50 µM	42.3 µM	9.65 µM
CS(=O)(=O)N(CCC#N)c1ccc(C=O)cc1	–	> 100 µM	–	> 100 µM	–	> 100 µM	–	–	–	> 100 µM	–	> 100 µM	–	> 100 µM	–	> 100 µM	–	> 100 µM	> 100 µM	–
CCOC(=O)C(C)(C)Oc1ccc2c(-c3ccc(Cl)cc3)c(-c3ccc(Cl)cc3)c(=O)oc2c1	–	> 100 µM	–	> 100 µM	–	> 100 µM	–	–	–	–	–	> 100 µM	–	> 100 µM	–	> 100 µM	–	> 100 µM	> 100 µM	–
C=C(CNC(=O)c1ccccc1)c1ccc(C(=O)Nc2ccccc2N)cc1	1.09 µM	8.93 µM	1.39 µM	7.41 µM	1.6 µM	15.2 µM	2.95 µM	> 100 µM	> 100 µM	> 100 µM	14 µM	> 100 µM	11.7 µM	> 100 µM	–	–	63.7 µM	> 100 µM	> 100 µM	19.5 µM
Cc1c(-c2nnc(-c3ccccc3)o2)c(=O)n(-c2ccccc2)n1C	–	> 100 µM	–	> 100 µM	–	> 100 µM	–	–	–	> 100 µM	–	> 100 µM	–	> 100 µM	–	> 100 µM	–	> 100 µM	> 100 µM	–
